Results reported in US20260226049A1, “NITROGEN-CONTAINING HETEROCYCLIC COMPOUND, PREPARATION METHOD THEREFOR, AND USE THEREOF” (BIVISION PHARMACEUTICALS, INC, priority 2023, published 2026).

Biological target: T1, recombinant human fibroblast activation protein (FAP) (Homo sapiens, UniProt Q12884)
T1 sequence (Q12884 1-760): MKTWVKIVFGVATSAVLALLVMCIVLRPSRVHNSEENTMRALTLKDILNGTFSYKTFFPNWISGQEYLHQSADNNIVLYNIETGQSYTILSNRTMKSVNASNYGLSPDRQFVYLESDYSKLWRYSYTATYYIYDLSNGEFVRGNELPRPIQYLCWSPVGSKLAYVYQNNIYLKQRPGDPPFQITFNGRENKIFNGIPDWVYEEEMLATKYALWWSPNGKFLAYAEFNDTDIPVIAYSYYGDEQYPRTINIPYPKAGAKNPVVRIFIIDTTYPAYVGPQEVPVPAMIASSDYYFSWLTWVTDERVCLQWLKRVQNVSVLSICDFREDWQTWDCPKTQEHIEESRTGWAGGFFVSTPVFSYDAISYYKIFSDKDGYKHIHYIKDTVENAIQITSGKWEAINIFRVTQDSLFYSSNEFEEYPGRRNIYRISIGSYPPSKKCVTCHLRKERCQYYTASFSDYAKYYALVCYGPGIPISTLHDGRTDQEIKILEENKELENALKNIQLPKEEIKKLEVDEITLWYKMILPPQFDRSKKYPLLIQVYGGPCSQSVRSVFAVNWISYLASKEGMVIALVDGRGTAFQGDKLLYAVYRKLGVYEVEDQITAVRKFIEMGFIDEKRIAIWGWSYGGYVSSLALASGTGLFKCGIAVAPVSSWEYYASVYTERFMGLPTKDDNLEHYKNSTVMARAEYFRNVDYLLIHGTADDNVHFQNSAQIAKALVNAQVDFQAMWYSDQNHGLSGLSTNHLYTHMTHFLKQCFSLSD
Test: Selective assay, protease inhibition (FAP)
Format: biochemical
Conditions: substrate Z-Gly-Pro-AMC
Protocol: The specificity of the synthesized compounds against recombinant human dipeptidyl peptidase IV (DPPIV), fibroblast activation protein (FAP), or prolyl oligopeptidase (PREP) was expressed by their half-maximal inhibitory concentration (IC50) against the proteases.
1) The synthesized compound was dissolved in DMSO to a final concentration of 100 mM.
a) For FAP assay: The test compound was diluted to a 1 mM solution using a buffer of 50 mM Tris, 140 mM NaCl at pH 7.5.
2) The prepared 1 mM test compound solution was serially diluted (1:10) into a row of a 96-well plate using the corresponding buffer mentioned above.
3) The substrate was prepared as a DMSO stock solution (FAP and PREP: 2.5 mM Z-Gly-Pro-AMC (VWR, Cat. No. I-1145.0050BA) in DMSO; DPPIV: 100 mM Gly-Pro-AMC (VWR, Cat. No. 100042-646) in DMSO), and subsequently the substrate stock solution was diluted 20-fold using the corresponding buffer mentioned above.
4) The enzyme was diluted into the appropriate assay buffer. The final concentrations of DPPIV, FAP, and PREP were […], respectively. To each required well in columns 2-10, 180 μL was added separately. Column 1 (A, B, C) was prepared with 200 μL of the appropriate assay buffer as a control. […]
7) Fluorescence was measured at λex: 380, λem: 460. […]

IC50: 0.01 to 0.1 µM
Structure (SMILES): N#C[C@@H]1CC(F)(F)CN1C(=O)CNC(=O)c1cccc2c1CCN(C(=O)CCC(=O)NCCNC(=O)CCC(C(=O)O)N1CCN(CC(=O)O)CCN(CC(=O)O)CCN(CC(=O)O)CC1)C2 (stereo partly shown) [JHH5]
